{
  "source": "patent US6709666B2",
  "about": "“Insecticidal mat and heat-transpiration insecticidal method using the same” (Dainihon Jochugiku Co., Ltd., priority 2000, dated 2004)",
  "origin": "cited, not measured here",
  "conditions": "at 20° C.",
  "data": [
    {"smiles": "C#CC(OC(=O)C1C(C=C(C)C)C1(C)C)/C(C)=C/CC", "note": "(stereo not shown) [empenthrin]", "values": [
      {"measurement": "vapor pressure", "result": 87, "unit": "mPa"}
    ]}
  ]
}
